Measured values taken from patent US20100190747A1, “Fused ring compound and use thereof” (priority 2009, published 2010).

Each molecule was assayed against T1, delta-5-desaturase (Rattus norvegicus, UniProt Q920R3) (assay: Inhibitory activity on delta-5-desaturase (rat liver microsomal fraction, 14C-eicosatrienoic acid, TLC)). Conditions: test compound at 10 μM, room temperature, 120 minutes.
T1 construct: the microsomal fraction of a rat river (10 μl), which had been diluted to 3 mg/ml; from tissue; host or cells: rat liver microsomal fraction
T1 sequence (Q920R3 whole entry): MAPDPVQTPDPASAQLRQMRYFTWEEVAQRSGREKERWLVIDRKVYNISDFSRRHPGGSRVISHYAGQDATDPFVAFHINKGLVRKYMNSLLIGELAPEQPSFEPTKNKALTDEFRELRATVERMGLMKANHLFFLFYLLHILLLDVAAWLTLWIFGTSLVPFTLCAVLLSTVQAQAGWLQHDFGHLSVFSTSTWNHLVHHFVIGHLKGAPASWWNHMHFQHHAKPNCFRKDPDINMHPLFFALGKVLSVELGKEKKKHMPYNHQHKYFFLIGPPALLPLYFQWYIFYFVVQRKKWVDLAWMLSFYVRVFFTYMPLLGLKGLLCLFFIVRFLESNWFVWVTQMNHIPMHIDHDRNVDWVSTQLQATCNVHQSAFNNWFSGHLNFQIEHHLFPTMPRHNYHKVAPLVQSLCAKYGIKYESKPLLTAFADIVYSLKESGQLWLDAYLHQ
Format: biochemical
In short: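 Rat liver microsomes (3 mg/ml before addition) incubated with test compound at 10 μM, NADH, ATP, CoA and 14C-eicosatrienoic acid in phosphate buffer pH 7.4 with BSA and glutathione, 120 min at room temperature. Lipids saponified, extracted, separated by reverse-phase TLC and imaged; % inhibition reported.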
`CC(C)(C)CCOc1ccc(-n2c(SCCCC(=O)NCCC#N)nc3[nH]ccc3c2=O)cc1` [Example 176, N-(2-cyanoethyl)-4-({3-[4-(3,3-dimethylbutoxy)phenyl]-4-oxo-4,7-dihydro-3H-pyrrolo[2,3-d]pyrimidin-2-yl}sulfanyl)butanamide] showed an inhibition at 10 µM of 98%.
In the case of `CCCSc1nc2cc[nH]c2c(=O)n1-c1ccc(OCC(F)(F)F)cc1` [Example 105, 2-(Propylsulfanyl)-3-[4-(2,2,2-trifluoroethoxy)phenyl]-3,5-dihydro-4H-pyrrolo[3,2-d]pyrimidin-4-one], the inhibition at 10 µM is reported as 100%.
For `O=C1Cc2c(nc(OCC(F)(F)F)n(-c3ccc(OCC(F)(F)C(F)(F)F)cc3)c2=O)N1` [Example 306, 3-[4-(2,2,3,3,3-Pentafluoropropoxy)phenyl]-2-(2,2,2-trifluoroethoxy)-5,7-dihydro-3H-pyrrolo[2,3-d]pyrimidine-4,6-dione], the inhibition at 10 µM was 99%.
Molecule `CCSc1nc2c(c(=O)n1-c1ccc(OCC(F)(F)F)cc1)CC(=O)N2` [Example 265, 2-(Ethylsulfanyl)-3-[4-(2,2,2-trifluoroethoxy)phenyl]-5,7-dihydro-3H-pyrrolo[2,3-d]pyrimidine-4,6-dione] has an inhibition at 10 µM of 98%.
Work on `O=C(CCCSc1nc2cc[nH]c2c(=O)n1-c1ccc(OCC(F)(F)F)cc1)N1CCSCC1` [Example 136, 2-[(4-Oxo-4-thiomorpholin-4-ylbutyl)sulfanyl]-3-[4-(2,2,2-trifluoroethoxy)phenyl]-3,5-dihydro-4H-pyrrolo[3,2-d]pyrimidin-4-one] yielded an inhibition at 10 µM of 99%.
Molecule `O=C1Cc2c(nc(OCC(F)(F)F)n(-c3ccc(OCC(F)(F)F)c(F)c3)c2=O)N1` [Example 309, 3-[3-Fluoro-4-(2,2,2-trifluoroethoxy)phenyl]-2-(2,2,2-trifluoroethoxy)-5,7-dihydro-3H-pyrrolo[2,3-d]pyrimidine-4,6-dione] has an inhibition at 10 µM of 98%.
Molecule `CCOc1ccc(-n2c(SCCCC(=O)N(C)CCC#N)nc3cc[nH]c3c2=O)cc1` [Example 66, N-(2-cyanoethyl)-4-{[3-(4-ethoxyphenyl)-4-oxo-4,5-dihydro-3H-pyrrolo[3,2-d]pyrimidin-2-yl]sulfanyl}-N-methylbutanamide] has an inhibition at 10 µM of 101%.
`CCCCOc1ccc(-n2c(SCCCC(=O)NCCC#N)nc3cc[nH]c3c2=O)cc1` [Example 91, 4-{[3-(4-Butoxyphenyl)-4-oxo-4,5-dihydro-3H-pyrrolo[3,2-d]pyrimidin-2-yl]sulfanyl}-N-(2-cyanoethyl)butanamide] was tested, and the inhibition at 10 µM was 100%.
With `CCOCCCSc1nc2cc[nH]c2c(=O)n1-c1ccc(OCC2CC2)cc1` [Example 139, 3-[4-(Cyclopropylmethoxy)phenyl]-2-[(3-ethoxypropyl)sulfanyl]-3,5-dihydro-4H-pyrrolo[3,2-d]pyrimidin-4-one] the inhibition at 10 µM was 101%.
With `N#CCCNC(=O)CCCSc1nc2[nH]ccc2c(=O)n1-c1ccc(OCC2CC2)cc1` [Example 185, N-(2-cyanoethyl)-4-({3-[4-(cyclopropylmethoxy)phenyl]-4-oxo-4,7-dihydro-3H-pyrrolo[2,3-d]pyrimidin-2-yl}sulfanyl)butanamide] the inhibition at 10 µM was 97%.
In the case of `CCc1c[nH]c2c(=O)n(-c3ccc(OCC(F)(F)F)cc3)c(SCCCC(=O)NCCC#N)nc12` [Example 171, N-(2-cyanoethyl)-4-({7-ethyl-4-oxo-3-[4-(2,2,2-trifluoroethoxy)phenyl]-4,5-dihydro-3H-pyrrolo[3,2-d]pyrimidin-2-yl}sulfanyl)butanamide], the inhibition at 10 µM is reported as 98%.
`N#CCCNC(=O)CSc1nc2c(c(=O)n1-c1ccc(OCC(F)(F)F)cc1)CC(=O)N2` [Example 328, N-(2-cyanoethyl)-2-({4,6-dioxo-3-[4-(2,2,2-trifluoroethoxy)phenyl]-4,5,6,7-tetrahydro-3H-pyrrolo[2,3-d]pyrimidin-2-yl}sulfanyl)acetamide] gave an inhibition at 10 µM of 97%.
`O=C(CCCSc1nc2cc[nH]c2c(=O)n1-c1ccc(OCC(F)(F)F)cc1)N1CCCCC1` [Example 77, 2-[(4-Oxo-4-piperidin-1-ylbutyl)sulfanyl]-3-[4-(2,2,2-trifluoroethoxy)phenyl]-3,5-dihydro-4H-pyrrolo[3,2-d]pyrimidin-4-one] gave an inhibition at 10 µM of 100%.
`O=c1c2cc[nH]c2nc(SCC2CC2)n1-c1ccc(OCC(F)(F)F)cc1` [Example 255, 2-[(Cyclopropylmethyl)sulfanyl]-3-[4-(2,2,2-trifluoroethoxy)phenyl]-3,7-dihydro-4H-pyrrolo[2,3-d]pyrimidin-4-one] gave an inhibition at 10 µM of 101%.
With `O=c1c2cc[nH]c2nc(SCCO)n1-c1ccc(OCC(F)(F)F)cc1` [Example 214, 2-[(2-Hydroxyethyl)sulfanyl]-3-[4-(2,2,2-trifluoroethoxy)phenyl]-3,7-dihydro-4H-pyrrolo[2,3-d]pyrimidin-4-one] the inhibition at 10 µM was 101%.
With `CCCOc1nc2[nH]ccc2c(=O)n1-c1ccc(OCC(F)(F)F)cc1` [Example 217, 2-Propoxy-3-[4-(2,2,2-trifluoroethoxy)phenyl]-3,7-dihydro-4H-pyrrolo[2,3-d]pyrimidin-4-one] the inhibition at 10 µM was 99%.
Work on `CCC(CC)Sc1nc2c(c(=O)n1-c1ccc(OCC(F)(F)F)cc1)CC(=O)N2` [Example 340, 2-[(1-Ethylpropyl)sulfanyl]-3-[4-(2,2,2-trifluoroethoxy)phenyl]-5,7-dihydro-3H-pyrrolo[2,3-d]pyrimidine-4,6-dione] yielded an inhibition at 10 µM of 101%.
With `N#CCCCSc1nc2cc[nH]c2c(=O)n1-c1ccc(OCC(F)(F)F)cc1` [Example 86, 4-({4-Oxo-3-[4-(2,2,2-trifluoroethoxy)phenyl]-4,5-dihydro-3H-pyrrolo[3,2-d]pyrimidin-2-yl}sulfanyl)butanenitrile] the inhibition at 10 µM was 99%.
Work on `O=c1c2cc[nH]c2nc(SCC(O)COC2CCOCC2)n1-c1ccc(OCC(F)(F)F)cc1` (centres unmarked) [Example 219, 2-{[2-Hydroxy-3-(tetrahydro-2H-pyran-4-yloxy)propyl]sulfanyl}-3-[4-(2,2,2-trifluoroethoxy)phenyl]-3,7-dihydro-4H-pyrrolo[2,3-d]pyrimidin-4-one] yielded an inhibition at 10 µM of 102%.
`CC(C)CCOc1ccc(-n2c(SCCCC(=O)NCCC#N)nc3cc[nH]c3c2=O)cc1` [Example 113, N-(2-cyanoethyl)-4-({3-[4-(3-methylbutoxy)phenyl]-4-oxo-4,5-dihydro-3H-pyrrolo[3,2-d]pyrimidin-2-yl}sulfanyl)butanamide] was tested, and the inhibition at 10 µM was 102%.
With `O=C(CCCSc1nc2cc[nH]c2c(=O)n1-c1ccc(OCC(F)(F)F)cc1)N1CCS(=O)(=O)CC1` [Example 135, 2-{[4-(1,1-Dioxidothiomorpholin-4-yl)-4-oxobutyl]sulfanyl}-[4-(2,2,2-trifluoroethoxy)phenyl]-3,5-dihydro-4H-pyrrolo[3,2-d]pyrimidin-4-one] the inhibition at 10 µM was 100%.
In the case of `N#CCCNC(=O)CCCSc1nc2cc[nH]c2c(=O)n1-c1ccc(OCC2CC2)cc1` [Example 92, N-(2-cyanoethyl)-4-({3-[4-(cyclopropylmethoxy)phenyl]-4-oxo-4,5-dihydro-3H-pyrrolo[3,2-d]pyrimidin-2-yl}sulfanyl)butanamide], the inhibition at 10 µM is reported as 102%.
`CC(C)(CO)NC(=O)CCCSc1nc2cc[nH]c2c(=O)n1-c1ccc(OCC(F)(F)F)cc1` [Example 100, N-(2-hydroxy-1,1-dimethylethyl)-4-({4-oxo-3-[4-(2,2,2-trifluoroethoxy)phenyl]-4,5-dihydro-3H-pyrrolo[3,2-d]pyrimidin-2-yl}sulfanyl)butanamide] showed an inhibition at 10 µM of 100%.
`CCSc1nc2[nH]ccc2c(=O)n1-c1ccc(OCC(F)(F)C(F)(F)F)cc1` [Example 249, 2-(Ethylsulfanyl)-3-[4-(2,2,3,3,3-pentafluoropropoxy)phenyl]-3,7-dihydro-4H-pyrrolo[2,3-d]pyrimidin-4-one] showed an inhibition at 10 µM of 100%.
With `CCSc1nc2c(c(=O)n1-c1ccc(OCC(F)F)cc1)CC(=O)N2` [Example 270, 3-[4-(2,2-Difluoroethoxy)phenyl]-2-(ethylsulfanyl)-5,7-dihydro-3H-pyrrolo[2,3-d]pyrimidine-4,6-dione] the inhibition at 10 µM was 99%.
With `N#CCCCCSc1nc2cc[nH]c2c(=O)n1-c1ccc(OCC(F)(F)F)cc1` [Example 87, 5-({4-Oxo-3-[4-(2,2,2-trifluoroethoxy)phenyl]-4,5-dihydro-3H-pyrrolo[3,2-d]pyrimidin-2-yl}sulfanyl)pentanenitrile] the inhibition at 10 µM was 99%.
`COCCOCCCSc1nc2[nH]ccc2c(=O)n1-c1ccc(OCC(F)(F)F)cc1` [Example 191, 2-{[3-(2-Methoxyethoxy)propyl]sulfanyl}-3-[4-(2,2,2-trifluoroethoxy)phenyl]-3,7-dihydro-4H-pyrrolo[2,3-d]pyrimidin-4-one] was tested, and the inhibition at 10 µM was 101%.
In the case of `CCOc1ccc(-n2c(SCCCS(=O)(=O)NCCC#N)nc3cc[nH]c3c2=O)cc1` [Example 62, N-(2-cyanoethyl)-3-{[3-(4-ethoxyphenyl)-4-oxo-4,5-dihydro-3H-pyrrolo[3,2-d]pyrimidin-2-yl]sulfanyl}propane-1-sulfonamide], the inhibition at 10 µM is reported as 102%.
Molecule `CC(C)OCCCSc1nc2cc[nH]c2c(=O)n1-c1ccc(OCC(F)(F)F)cc1` [Example 137, 2-{[3-(1-Methylethoxy)propyl]sulfanyl}-3-[4-(2,2,2-trifluoroethoxy)phenyl]-3,5-dihydro-4H-pyrrolo[3,2-d]pyrimidin-4-one] has an inhibition at 10 µM of 99%.
In the case of `O=c1c2cc[nH]c2nc(Oc2ccc(F)cc2)n1-c1ccc(OCC(F)(F)F)cc1` [Example 246, 2-(4-Fluorophenoxy)-3-[4-(2,2,2-trifluoroethoxy)phenyl]-3,7-dihydro-4H-pyrrolo[2,3-d]pyrimidin-4-one], the inhibition at 10 µM is reported as 101%.
Molecule `CCCCOc1nc2[nH]ccc2c(=O)n1-c1ccc(OCC(F)(F)F)cc1` [Example 222, 2-Butoxy-3-[4-(2,2,2-trifluoroethoxy)phenyl]-3,7-dihydro-4H-pyrrolo[2,3-d]pyrimidin-4-one] has an inhibition at 10 µM of 101%.
For `O=c1c2cc[nH]c2nc(OCC(F)(F)F)n1-c1ccc(OCC(F)(F)F)cc1` [Example 227, 2-(2,2,2-Trifluoroethoxy)-3-[4-(2,2,2-trifluoroethoxy)phenyl]-3,7-dihydro-4H-pyrrolo[2,3-d]pyrimidin-4-one], the inhibition at 10 µM was 99%.
